Results: BindingDB's records for doi:10.3109/14756366.2012.680063 (Rhodes University, 2013)
Residues, ends and D or L forms follow the SMILES beside them.

Assays:
[1] = target: T1, Superoxide dismutase [Cu-Zn] (Bovine, UniProt P00442); experiment: SOD Assay (Fluorimetric Analysis); conditions: pH 8; 37 °C
Method: SOD activity of the purified samples was determined by the SOD assay kit using (2-(4-iodophenyl)-3-(4nitrophenyl)-5-(2,4-disulphenyl)-2H-tetrazolium, monosodium salt) [WST] which is a colorimetric assay that monitors the rate of inhibition of WST to a water soluble formazan dye.

[2] = target: T1, Superoxide dismutase [Cu-Zn]; experiment: SOD Assay (Kinetic Analysis)

T1 sequence (P00442 whole entry): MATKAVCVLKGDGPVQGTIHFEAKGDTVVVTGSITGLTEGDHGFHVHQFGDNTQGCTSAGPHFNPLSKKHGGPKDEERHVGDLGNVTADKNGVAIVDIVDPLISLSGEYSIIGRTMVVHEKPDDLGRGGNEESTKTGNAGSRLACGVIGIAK

Row | Kd [1] [µM] | Ki [2] [µM] | SMILES
1 | 15.7 | 13.2 | CC[C@H](C)[C@H](NC(=O)[C@H](C)NC(=O)CN)C(=O)N[C@H](C(=O)NCC(=O)O)[C@@H](C)CC [Aβ (29-33)] (H-GAIIG-OH)
2 | 9.38 | 14.4 | CC[C@H](C)[C@H](NC(=O)[C@H](C)NC(=O)CNC(=O)[C@H](CCCCN)NC(=O)[C@H](CC(N)=O)NC(=O)[C@H](CO)NC(=O)CN)C(=O)N[C@H](C(=O)NCC(=O)N[C@@H](CC(C)C)C(=O)N[C@@H](CCSC)C(=O)N[C@H](C(=O)NCC(=O)O)C(C)C)[C@@H](C)CC [Aβ (25-37)] (H-GSNKGAIIGLMVG-OH)
